According to patent publication US7981457B2, “Taste improving substances” (Quest International B.V. & Quest International Services B.V., priority 2004, dated 2011):

Experiment: tasting of LC-MS fractions of the product of Example 1
Format: in vivo
Settings: fractions of the Example 1 product, content shown by 1H NMR
Experimental: 30 g of ethyl lactate and 10 g of GMP were thoroughly mixed in 90 g of glycerol to obtain a clear solution. The mixture was heated under stirring at 120° C. for 1 hour. A white precipitate was formed at the end of the heating period. The mixture was cooled to 70° C. and 100 g of isopropyl alcohol was added followed by stirring. Next, the mixture was filtered over a glass filter and the filter residue was washed three times with 300 g isopropyl alcohol. Thus, 12 g of an almost white powder was obtained. The main taste components of the obtained product were identified using LC-MS and tasting different fractions.

Molecule | taste of the fractions containing the substance
O-lactoyl GMP | “long-lasting” and “kokumi”
CC(O)C(=O)Nc1nc2c(ncn2[C@@H]2O[C@H](COP(=O)(O)O)[C@@H](O)[C@H]2O)c(=O)[nH]1 (some centres unmarked) [N-lactoyl GMP] | “long-lasting” and “kokumi”
